Type in all cases: in vivo, mouse
Data set [1] deals with ovariectomy model mice. Briefly: Forced swimming test (Test Example 1). Here is the method:
A forced swimming test has been widely used in the preclinical assessment of the antidepressant effect, and clinically effective antidepressants are known to shorten the immobility time (Porsort et al., Nature, 266, 730-732, 1977).
Therefore, the D4-II-3E-4 fraction ((2E)-9,10-dihydroxy-2-decenoic acid) prepared in Preparation Example 1 was administered to the animal model to undergo a forced swimming test (Nature, 266:730-732, 1977), and the antidepressant effect of the compound was evaluated.
ICR female mice (9 weeks old; weight: 29 to 33 g) were used as experimental animals. All of the mice were group-housed (10 mice per cage), and the feed and white flake bedding were exchanged once per week. The surgery to remove the ovaries was performed according to the following method.
Under pentobarbital anesthesia (65 mg/kg, i.p.), a 5 mm incision was made in the dorsal abdomen of a mouse, and the ovaries was temporarily exposed to the outside of the body. After ligation between the ovaries and uterus end (i.e. oviducts), the ovaries were dissected. Thereafter, the oviducts were promptly returned to the intraperitoneal cavity, and the abdominal wall and the skin were sutured.
A 0.25 mg amount of the D4-II-3E-4 fraction (a freeze-dried product) prepared in Preparation Example 1 was dissolved in 50 ml of ion exchange water to prepare a suspension. […]
Water at a temperature of 25° C. was introduced into a clear measuring cylinder made of polycarbonate (inner diameter: 10 cm; height: 25 cm) so that the water surface level was adjusted to 10 cm from the bottom. Each mouse was forced to swim for 6 minutes while being recorded by a high-sensitivity video system. Thereafter, the recorded image was observed, and by means of an event recorder, the time (in seconds) during which the mouse was floating in an immobile state was measured (an analysis was made for the duration of the 4 minutes from the second minute onward).

Data set [2] relates to ovariectomy model mice. Briefly: Uterus weight measurement after forced swimming test (Test Example 1). The following applies: dose that shortens the immobility time, wet weight, FIG. 9. Here is the method:
After conducting the forced swimming test (after completing the observation of the immobility time), an overdose of pentobarbital (100 mg/kg or more) was administered to each of the mice to cause them to stop breathing, and the mice were sacrificed. Then, the uterus was collected from each of the mice through an incision in the abdomen. The collected uterus was spread onto a filter paper, and after the serosa and blood vessel adhering to the uterus were removed, the weight of the uterus was promptly measured on a wet basis with an analytical balance.

Data set [3] deals with ovariectomy model mice. Briefly: Forced swimming test, modified (Test Example 2). The following applies: oral for 14 days; for Immobility Time (second) Mean: 2 hours after last dose, 2nd minute to 4th minute, mean of 6 animals; for antidepressant effect: conclusion from Table 1 and FIG. 11. Here is the method: Test Example 1 was partly modified as below, and a forced swimming test was performed to evaluate an antidepressant effect using the compounds (DDA-7 and DDA-14 to DDA-16) prepared in Preparation Examples 3 to 6 as test compounds. Regarding DDA-14 and DDA-15, a naturally occurring racemic form thereof has been reported, and thus, similarly to the mixture ratio by weight thereof, DDA-14 and DDA-15 were mixed at the ratio of 3:1 and prepared (2E,9S+9R)-9-hydroxy-2-decenoic acid (racemic form).
The experimental animals (ovariectomy model mice), to which each test compound was administered for 14 days (the first day of the administration was the following day after the day the ovaries were removed), were forced to swim. A 0.32 mg amount of compound DDA-7, 0.29 mg and 0.088 mg of DDA-14 and DDA-15, respectively, and 0.29 mg of DDA-16 were each individually dissolved in 80 ml of ion exchange water for administration. On the 14th day from the day each test compound administration was commenced, and 2 hours after the test compound was orally administered, each of the experimental animals was placed into a water tank, and the swimming time was measured for 10 minutes (test group). As a control experiment, the same procedure was performed as above, except that distilled water for injection was orally administered in place of the test compounds to each of the experimental animals (ovariectomy model mouse) in an amount of 0.1 ml per 10 g of body weight (control group).
The ten-minute swimming time was divided into one-minute periods to conduct analysis.

In the case of `O=C(O)/C=C/CCCCCC(O)CO` (stereo not shown) [D4-II-3E-4 fraction, (2E)-9,10-dihydroxy-2-decenoic acid], in the data set on ovariectomy model mice [1] (0.25 mg in 50 ml water, 0.1 ml per 10 g body weight orally once a day for 2 weeks, 4 minutes from the second minute onward, FIG. 8), the “immobility time compared with control group” value is “significantly shorter”. Moreover, the antidepressant effect result in the data set on ovariectomy model mice [1] (oral, once a day for 2 weeks, conclusion from FIG. 8) was “exhibits an antidepressant effect”. Moreover, in the data set on ovariectomy model mice [2], the “uterus weight compared with control group” value is on record as “a difference in the uterus weights was not recognized”.
Turning to `CC(=O)OCCCC/C=C/C(=O)O` [DDA-16, (2E)-7-acetoxy-2-heptenoic acid], in the data set on ovariectomy model mice [3], the “Immobility Time (second) Mean” value is 87.14 s and the antidepressant effect entry is “exhibit an antidepressant effect”.
Regarding `O=C(O)/C=C\CCCCC[C@@H](O)CO` [DDA-7, (2Z,9R)-9,10-dihydroxy-2-decenoic acid], in the data set with ovariectomy model mice [3], the “Immobility Time (second) Mean” value came out at 80.14 s and the antidepressant effect result was “exhibit an antidepressant effect”.
`CC(O)CCCCC/C=C/C(=O)O` (racemic) [DDA14 + DDA15, (2E,9S+9R)-9-hydroxy-2-decenoic acid]: in the data set with ovariectomy model mice [3], the “Immobility Time (second) Mean” value stood at 98.82 s and the antidepressant effect entry is recorded as “exhibit an antidepressant effect”.
Turning to `O=C(O)C=CCCCCCCCO` [10-hydroxydecenoic acid, reference compound], in the data set with ovariectomy model mice [1] (oral 70, 140, 210 mg/kg/day, FIG. 10), the antidepressant effect entry is recorded as “does not exhibit an antidepressant effect”.

These data come from patent US8119839B2, “Carboxylic acid and antidepressant composition containing the same as active ingredient” (Yamada Apiculture Center, Inc., priority 2007, dated 2012).
